Reference: patent US10112899B2 (ViiV HEALTHCARE UK LIMITED, priority 2014, dated 2018)

System: HIV in the HTLV-1 transformed cell line MT-4
Test: organism not typed
Assay type: cell-based
Settings: MT4, 96 h, MT-4 cells; luciferase/cell titer glo readout after 96 hours; 10 point dose response

SMILES | IC50 [nM]
Cc1ccc(-c2c(C)c3c(c(C)c2[C@H](OC(C)(C)C)C(=O)O)CN(C(=O)c2ccc(C(C)(C)C)cc2)C3)cc1 [Example 224, (S)-2-(tert-butoxy)-2-(2-(4-(tert-butyl)benzoyl)-4,7-dimethyl-6-(p-tolyl)isoindolin-5-yl)acetic acid] | 44
Cc1ccc(-c2c(C)c3c(c(C)c2[C@H](OC(C)(C)C)C(=O)O)CN(C(=O)c2cc(F)ccc2F)C3)cc1 [Example 262, (S)-2-(tert-butoxy)-2-(2-(2,5-difluorobenzoyl)-4,7-dimethyl-6-(p-tolyl)isoindolin-5-yl)acetic acid] | 5
Cc1ccc(-c2c(C)c3c(c(C)c2[C@H](OC(C)(C)C)C(=O)O)CN(Cc2ccncc2)C3)cc1 [Example 11, (S)-2-(tert-butoxy)-2-(4,7-dimethyl-2-(pyridin-4-ylmethyl)-6-(p-tolyl)isoindolin-5-yl)acetic acid] | 174
CNC(=O)c1cccc(CN2Cc3c(C)c(-c4ccc(C)cc4)c([C@H](OC(C)(C)C)C(=O)O)c(C)c3C2)c1 [Example 43, (2S)-2-(tert-butoxy)-2-(4,7-dimethyl-2-{[3-(methylcarbamoyl)phenyl]methyl}-6-(4-methylphenyl)-2,3-dihydro-1H-isoindol-5-yl)acetic acid] | 937
Cc1ccc(-c2c(C)c3c(c(C)c2[C@H](OC(C)(C)C)C(=O)O)CN(C(=O)C2CCCC2)C3)cc1 [Example 112, (S)-2-(tert-butoxy)-2-(2-(cyclopentanecarbonyl)-4,7-dimethyl-6-(p-tolyl)isoindolin-5-yl)acetic acid] | 29
Cc1c(-c2c(C)c3c(c(C)c2[C@H](OC(C)(C)C)C(=O)O)CN(C(=O)N2CCCC(F)(F)C2)C3)cc(F)c2c1CCCO2 (atropisomer, axis not shown) [Example 102, (S)-2-(tert-butoxy)-2-((R)-2-(3,3-difluoropiperidine-1-carbonyl)-6-(8-fluoro-5-methylchroman-6-yl)-4,7-dimethylisoindolin-5-yl)acetic acid] | 2
Cc1ccc(-c2c(C)c3c(c(C)c2[C@H](OC(C)(C)C)C(=O)O)CN(C(=O)c2cn(C)cn2)C3)cc1 [Example 237, (S)-2-(tert-butoxy)-2-(4,7-dimethyl-2-(1-methyl-1H-imidazole-4-carbonyl)-6-(p-tolyl)isoindolin-5-yl)acetic acid] | 67
Cc1ccc(-c2c(C)c3c(c(C)c2[C@H](OC(C)(C)C)C(=O)O)CN(S(=O)(=O)N2CCC(F)(F)C2)C3)cc1 [Example 289, (S)-2-(tert-butoxy)-2-(2-((3,3-difluoropyrrolidin-1-yl)sulfonyl)-4,7-dimethyl-6-(p-tolyl)isoindolin-5-yl)acetic acid] | 14
Cc1c(-c2c(C)c3c(c(C)c2[C@H](OC(C)(C)C)C(=O)O)CN(C(=O)c2cccc4c2OC(F)(F)O4)C3)cc(F)c2c1CCCO2 (atropisomer, axis not shown; (M)) [Example 162, (S)-2-(tert-butoxy)-2-((M)-2-(2,2-difluorobenzo[d][1,3]dioxole-4-carbonyl)-6-(8-fluoro-5-methylchroman-6-yl)-4,7-dimethylisoindolin-5-yl)acetic acid] | 2
Cc1ccc(-c2c(C)c3c(c(C)c2[C@H](OC(C)(C)C)C(=O)O)CN(C(=O)C(C)(C)C(F)(F)F)C3)cc1 [Example 241, (S)-2-(tert-butoxy)-2-(4,7-dimethyl-6-(p-tolyl)-2-(3,3,3-trifluoro-2,2-dimethylpropanoyl)isoindolin-5-yl)acetic acid] | 25
Cc1ccc(-c2c(C)c3c(c(C)c2[C@H](OC(C)(C)C)C(=O)O)CN(C(=O)NC(C)(C)c2ccccc2)C3)cc1 [Example 97, (S)-2-(tert-butoxy)-2-(4,7-dimethyl-2-((2-phenylpropan-2-yl)carbamoyl)-6-(p-tolyl)isoindolin-5-yl)acetic acid] | 144
Cc1c(-c2c(C)c3c(c(C)c2[C@H](OC(C)(C)C)C(=O)O)CN(C(=O)N2CCC(C)(C)C2)C3)cc(F)c2c1CCCO2 (atropisomer, axis not shown; (M)) [Example 214, (S)-2-(tert-butoxy)-2-((M)-2-(3,3-dimethylpyrrolidine-1-carbonyl)-6-(8-fluoro-5-methylchroman-6-yl)-4,7-dimethylisoindolin-5-yl)acetic acid] | 3
Cc1ccc(-c2c(C)c3c(c(C)c2[C@H](OC(C)(C)C)C(=O)O)CN(Cc2ccc(C(F)(F)F)cc2)C3)cc1 [Example 27, (S)-2-(tert-butoxy)-2-(4,7-dimethyl-6-(p-tolyl)-2-(4-(trifluoromethyl)benzyl)isoindolin-5-yl)acetic acid] | 932
Cc1ccc(C(=O)N2Cc3c(C)c(-c4cc(F)c5c(c4C)CCCO5)c([C@H](OC(C)(C)C)C(=O)O)c(C)c3C2)cc1F (atropisomer, axis not shown; (M)) [Example 144, (S)-2-(tert-butoxy)-2-((M)-2-(3-fluoro-4-methylbenzoyl)-6-(8-fluoro-5-methylchroman-6-yl)-4,7-dimethylisoindolin-5-yl)acetic acid] | 5
Cc1ccc(-c2c(C)c3c(c(C)c2[C@H](OC(C)(C)C)C(=O)O)CN(CC(=O)N2CCCCC2)C3)cc1 [Example 127, (S)-2-(tert-butoxy)-2-(4,7-dimethyl-2-(2-oxo-2-(piperidin-1-yl)ethyl)-6-(p-tolyl)isoindolin-5-yl)acetic acid] | 318
Cc1ccc(-c2c(C)c3c(c(C)c2[C@H](OC(C)(C)C)C(=O)O)CN(S(=O)(=O)NC(C)C)C3)cc1 [Example 51, (2S)-2-(tert-butoxy)-2-[4,7-dimethyl-6-(4-methylphenyl)-2-[(propan-2-yl)sulfamoyl]-2,3-dihydro-1H-isoindol-5-yl]acetic acid] | 44
Cc1ccc(-c2c(C)c3c(c(C)c2[C@H](OC(C)(C)C)C(=O)O)CNC3)cc1 [Example 124, (S)-2-(tert-butoxy)-2-(4,7-dimethyl-6-(p-tolyl)isoindolin-5-yl)acetic acid] | 1090
Cc1ccc(-c2c(C)c3c(c(C)c2[C@H](OC(C)(C)C)C(=O)O)CN(C(=O)C(=O)N2CCOC[C@H]2C)C3)cc1 [Example 130, (S)-2-(tert-butoxy)-2-(4,7-dimethyl-2-(2-((R)-3-methylmorpholino)-2-oxoacetyl)-6-(p-tolyl)isoindolin-5-yl)acetic acid] | 41
Cc1ccc(-c2c(C)c3c(c(C)c2[C@H](OC(C)(C)C)C(=O)O)CN(C(=O)N(C)CC2CCCCC2)C3)cc1 [Example 78, (2S)-2-(tert-butoxy)-2-{2-[(cyclohexylmethyl)(methyl)carbamoyl]-4,7-dimethyl-6-(4-methylphenyl)-2,3-dihydro-1H-isoindol-5-yl}acetic acid] | 126
COc1cccc(C(=O)N2Cc3c(C)c(-c4ccc(C)cc4)c([C@H](OC(C)(C)C)C(=O)O)c(C)c3C2)c1OC [Example 284, (S)-2-(tert-butoxy)-2-(2-(2,3-dimethoxybenzoyl)-4,7-dimethyl-6-(p-tolyl)isoindolin-5-yl)acetic acid] | 48
Cc1ccc(-c2c(C)c3c(c(C)c2[C@H](OC(C)(C)C)C(=O)O)CN(C(=O)c2cc(F)cc(Cl)c2)C3)cc1 [Example 226, (S)-2-(tert-butoxy)-2-(2-(3-chloro-5-fluorobenzoyl)-4,7-dimethyl-6-(p-tolyl)isoindolin-5-yl)acetic acid] | 5
Cc1ccc(-c2c(C)c3c(c(C)c2[C@H](OC(C)(C)C)C(=O)O)CN(C(=O)Cc2cccc(F)c2)C3)cc1 [Example 233, (S)-2-(tert-butoxy)-2-(2-(2-(3-fluorophenyl)acetyl)-4,7-dimethyl-6-(p-tolyl)isoindolin-5-yl)acetic acid] | 12
Cc1c(-c2c(C)c3c(c(C)c2[C@H](OC(C)(C)C)C(=O)O)CN(C(=O)c2cccc4ccccc24)C3)cc(F)c2c1CCCO2 (atropisomer, axis not shown; (M)) [Example 168, (S)-2-((M)-2-(1-naphthoyl)-6-(8-fluoro-5-methylchroman-6-yl)-4,7-dimethylisoindolin-5-yl)-2-(tert-butoxy)acetic acid] | 11
Cc1ccc(-c2c(C)c3c(c(C)c2[C@H](OC(C)(C)C)C(=O)O)CN(Cc2cccnc2)C3)cc1 [Example 41, (2S)-2-(tert-butoxy)-2-[4,7-dimethyl-6-(4-methylphenyl)-2-(pyridin-3-ylmethyl)-2,3-dihydro-1H-isoindol-5-yl]acetic acid] | 50
Cc1ccc(-c2c(C)c3c(c(C)c2[C@H](OC(C)(C)C)C(=O)O)CN(C(=O)NCC(C)(C)C)C3)cc1 [Example 74, (2S)-2-(tert-butoxy)-2-{2-[(2,2-dimethylpropyl)carbamoyl]-4,7-dimethyl-6-(4-methylphenyl)-2,3-dihydro-1H-isoindol-5-yl}acetic acid] | 21
Cc1ccc(-c2c(C)c3c(c(C)c2[C@H](OC(C)(C)C)C(=O)O)CN(C(=O)c2cccc4sccc24)C3)cc1 [Example 166, (S)-2-(2-(benzo[b]thiophene-4-carbonyl)-4,7-dimethyl-6-(p-tolyl)isoindolin-5-yl)-2-(tert-butoxy)acetic acid] | 27
Cc1ccc(-c2c(C)c3c(c(C)c2[C@H](OC(C)(C)C)C(=O)O)CN(C(=O)c2cc(C)c(F)c(F)c2)C3)cc1 [Example 278, (S)-2-(tert-butoxy)-2-(2-(3,4-difluoro-5-methylbenzoyl)-4,7-dimethyl-6-(p-tolyl)isoindolin-5-yl)acetic acid] | 5
Cc1ccc(-c2c(C)c3c(c(C)c2[C@H](OC(C)(C)C)C(=O)O)CN(C(=O)C2CCC(F)(F)CC2)C3)cc1 [Example 111, (S)-2-(tert-butoxy)-2-(2-(4,4-difluorocyclohexanecarbonyl)-4,7-dimethyl-6-(p-tolyl)isoindolin-5-yl)acetic acid] | 16

Same assay, conditions: MT-4 cells; luciferase/cell titer glo readout after 96 hours; 10 point dose response

SMILES | IC50 [nM]
Cc1c(-c2c(C)c3c(c(C)c2[C@H](OC(C)(C)C)C(=O)O)CN(C(=O)c2cccc(F)c2)C3)ccc2c1NCCO2 [Example 303, (2S)-2-(tert-butoxy)-2-(2-(3-fluorobenzoyl)-4,7-dimethyl-6-(5-methyl-3,4-dihydro-2H-benzo[b][1,4]oxazin-6-yl)isoindolin-5-yl)acetic acid] | 5
